According to patent US20230142542A1, “USE OF SUBSTITUTED 1,2,4-OXADIAZOLES FOR COMBATING PHYTOPATHOGENIC FUNGI” (BASF SE, priority 2020, published 2023):

O=C(O)C(F)(F)c1ccc(-c2noc(C(F)(F)F)n2)cc1 [I-2, 2,2-difluoro-2-[4-[5-(trifluoromethyl)-1,2,4-oxadiazol-3-yl]phenyl]acetic acid]
melting point: 119 to 121 °C
